In US9284325B2, “Spectinamides as anti-tuberculosis agents” (UNIVERSITY OF TENNESSEE RESEARCH FOUNDATION, priority 2009, dated 2016):
Counter-ions that a name gives are not always drawn.

Legend:
[1] = assay type: in vitro ADME; conditions: rat, microsomes, 1.5 h, 2 µM, pH 7.4
Method: In Vitro Microsomal Metabolic Stability: In vitro microsomal metabolic stability of the compounds was assessed using pooled rat liver microsomal preparations (Cellzdirect, Austin, Tex., United States of America). Reactions were started by adding 25 μL of microsomal protein solution (10 mg/mL) to 25 μL of test compound (20 μM) and 200 μL of NADPH regenerating solution (1.3 mM NADP+, 3.3 mM glucose-6-phosphate, 3.3 mM MgCl2 and 1 unit/mL glucose-6-phosphate dehydrogenase in pH 7.4 phosphate buffer solution). The reaction mixture was incubated at 37° C. and samples were taken at 0, 5, 10, 15, 30, 45, 60 and 90 minutes respectively. A reaction mixture containing above mentioned composition but instead using deactivated microsomes was used for control. All the samples were analyzed using LC-MS/MS assay. Disappearance of the parent compound was monitored during the incubation period. The percentage of parent compound remaining intact was estimated by comparing analyte concentrations before and after incubation.
Following intravenous administration of 10 mg/kg in rats, 1329 follows a bi-exponential concentration/time profile with distinct distribution and elimination phases. Plasma protein binding of the compound is approximately 30%. 1329 is widely distributed with a steady state volume of distribution of 4.3 L/kg. It has a mean residence time in the body of approximately 5.3 hours.

[2] = system: B. anthracis Sterne 34F2; experiment: microbe, parasite or virus in culture; assay type: cell-based, Bacillus anthracis; conditions: Bacillus anthracis, STERNE34F2, read-out: MIC B. anthracis 34F2
[3] = system: Klebsiella pneumoniae ATCC 33495; experiment: MIC determination by microbroth dilution; assay type: cell-based; conditions: ATCC33495
[4] = system: E. coli K12 ΔtolC; experiment: microbe, parasite or virus in culture; assay type: cell-based; conditions: Escherichia coli, read-out: MIC E. coli K12 ΔtolC
[5] = system: Proteus vulgaris ATCC 33420; experiment: MIC determination by microbroth dilution; assay type: cell-based; conditions: ATCC33420
[6] = system: S. aureus 8325 or strain ATCC 29213; experiment: MIC determination by microbroth dilution; assay type: cell-based, Staphylococcus aureus; conditions: Staphylococcus aureus, ATCC29213; S. aureus 8325 or strain ATCC 29213 (for 1471-1544)
[7] = system: E. faecalis ATCC 33186; experiment: MIC determination by microbroth dilution; assay type: cell-based, Enterococcus faecalis; conditions: Enterococcus faecalis, ATCC33186

## CN[C@@H]1[C@H](O)[C@H](NC)C2O[C@]3(O)C(OC2[C@H]1O)O[C@H](C)C[C@H]3NC(=O)Cc1ccccn1 (stereo partly drawn) [Compound 1329, 3′-Dihydro-3′-deoxy-4(R)-(pyridin-2yl)acetylamino spectinomycin Dihydrochloride]
[1]
  parent drug remaining intact: 95%
[2]
  MIC: 50 µg/mL
[3]
  MIC: > 200 µg/mL
[4]
  MIC: 50 µg/mL
[5]
  MIC: > 200 µg/mL
[6]
  MIC: 50 µg/mL
[7]
  MIC: 100 µg/mL
